Measurements reported in the NIST ThermoML archive (doi:10.1021/je501041r).
± gives the expanded uncertainty stated by the source.

What was measured:
[1] = 101 kPa, Liquid; for viscosity: Capillary tube (Ostwald / Ubbelohde) method; for mass density: Vibrating tube method
[2] = xn = mol fraction of the nth substance listed; details: 101 kPa, Liquid; for viscosity: Capillary tube (Ostwald / Ubbelohde) method; for mass density: Vibrating tube method

Structure (SMILES) | viscosity ([1]; 298.15 K) | mass density ([1]; 298.15 K) | viscosity ([1]; 303.15 K) | mass density ([1]; 303.15 K) | viscosity ([1]; 308.15 K) | mass density ([1]; 308.15 K) | viscosity ([1]; 313.15 K) | mass density ([1]; 313.15 K) | viscosity ([1]; 318.15 K) | mass density ([1]; 318.15 K) | viscosity ([1]; 323.15 K) | mass density ([1]; 323.15 K) | viscosity ([2]; 298.15 K, x1 = 1) | mass density ([2]; 298.15 K, x1 = 1) | viscosity ([2]; 303.15 K, x1 = 1) | mass density ([2]; 303.15 K, x1 = 1) | viscosity ([2]; 308.15 K, x1 = 1) | mass density ([2]; 308.15 K, x1 = 1) | viscosity ([2]; 313.15 K, x1 = 1) | mass density ([2]; 313.15 K, x1 = 1) | further results
CC(C)CC(C)(C)C [2,2,4-trimethylpentane] | 0.478 ± 0.006 mPa·s | 687.82 ± 2 kg/m3 | 0.453 ± 0.005 mPa·s | 683.68 ± 2 kg/m3 | 0.429 ± 0.005 mPa·s | 679.52 ± 2 kg/m3 | 0.408 ± 0.005 mPa·s | 675.32 ± 2 kg/m3 | 0.388 ± 0.005 mPa·s | 671.1 ± 2 kg/m3 | 0.369 ± 0.005 mPa·s | 666.85 ± 2 kg/m3 | – | – | – | – | – | – | – | – | –
CC(C)CC(C)(C)C [2,2,4-trimethylpentane] + CCCCCO | – | – | – | – | – | – | – | – | – | – | – | – | 0.478 ± 0.006 mPa·s | 687.82 ± 2 kg/m3 | 0.453 ± 0.005 mPa·s | 683.68 ± 2 kg/m3 | 0.429 ± 0.005 mPa·s | 679.52 ± 2 kg/m3 | 0.408 ± 0.005 mPa·s | 675.32 ± 2 kg/m3 | viscosity ([2]; 318.15 K, x1 = 1): 0.388 ± 0.005 mPa·s; mass density ([2]; 318.15 K, x1 = 1): 671.1 ± 2 kg/m3; viscosity ([2]; 323.15 K, x1 = 1): 0.369 ± 0.005 mPa·s; mass density ([2]; 323.15 K, x1 = 1): 666.85 ± 2 kg/m3
CCCCCCO [hexan-1-ol] | 4.605 ± 0.056 mPa·s | 815.3 ± 2 kg/m3 | 3.944 ± 0.048 mPa·s | 811.71 ± 2 kg/m3 | 3.414 ± 0.042 mPa·s | 808.09 ± 2 kg/m3 | 2.96 ± 0.036 mPa·s | 804.43 ± 2 kg/m3 | 2.581 ± 0.032 mPa·s | 800.75 ± 2 kg/m3 | 2.251 ± 0.028 mPa·s | 797.02 ± 2 kg/m3 | – | – | – | – | – | – | – | – | –
CCCO [propan-1-ol] | 1.955 ± 0.023 mPa·s | 800.03 ± 2 kg/m3 | 1.737 ± 0.02 mPa·s | 796.01 ± 2 kg/m3 | 1.548 ± 0.018 mPa·s | 791.92 ± 2 kg/m3 | 1.384 ± 0.016 mPa·s | 787.79 ± 2 kg/m3 | 1.241 ± 0.015 mPa·s | 783.65 ± 2 kg/m3 | 1.117 ± 0.013 mPa·s | 779.43 ± 2 kg/m3 | – | – | – | – | – | – | – | – | –
CCCO [propan-1-ol] + CC(C)CC(C)(C)C | – | – | – | – | – | – | – | – | – | – | – | – | – | – | – | – | – | – | – | – | viscosity ([2]; 298.15 K, x2 = 0): 1.955 ± 0.023 mPa·s; mass density ([2]; 298.15 K, x2 = 0): 800.03 ± 2 kg/m3; viscosity ([2]; 303.15 K, x2 = 0): 1.737 ± 0.02 mPa·s; mass density ([2]; 303.15 K, x2 = 0): 796.01 ± 2 kg/m3; viscosity ([2]; 308.15 K, x2 = 0): 1.548 ± 0.018 mPa·s; mass density ([2]; 308.15 K, x2 = 0): 791.92 ± 2 kg/m3; viscosity ([2]; 313.15 K, x2 = 0): 1.384 ± 0.016 mPa·s; mass density ([2]; 313.15 K, x2 = 0): 787.79 ± 2 kg/m3; viscosity ([2]; 318.15 K, x2 = 0): 1.241 ± 0.015 mPa·s; mass density ([2]; 318.15 K, x2 = 0): 783.65 ± 2 kg/m3; viscosity ([2]; 323.15 K, x2 = 0): 1.117 ± 0.013 mPa·s; mass density ([2]; 323.15 K, x2 = 0): 779.43 ± 2 kg/m3
CCCCCCCO [heptan-1-ol] | 6.004 ± 0.073 mPa·s | 818.82 ± 2 kg/m3 | 5.079 ± 0.062 mPa·s | 815.3 ± 2 kg/m3 | 4.374 ± 0.054 mPa·s | 811.75 ± 2 kg/m3 | 3.8 ± 0.047 mPa·s | 808.17 ± 2 kg/m3 | 3.224 ± 0.04 mPa·s | 804.57 ± 2 kg/m3 | 2.851 ± 0.035 mPa·s | 800.93 ± 2 kg/m3 | – | – | – | – | – | – | – | – | –
CC(C)CC(C)(C)C [2,2,4-trimethylpentane] + CCCCCCO | – | – | – | – | – | – | – | – | – | – | – | – | 0.478 ± 0.006 mPa·s | 687.82 ± 2 kg/m3 | 0.453 ± 0.005 mPa·s | 683.68 ± 2 kg/m3 | 0.429 ± 0.005 mPa·s | 679.52 ± 2 kg/m3 | 0.408 ± 0.005 mPa·s | 675.32 ± 2 kg/m3 | viscosity ([2]; 318.15 K, x1 = 1): 0.388 ± 0.005 mPa·s; mass density ([2]; 318.15 K, x1 = 1): 671.1 ± 2 kg/m3; viscosity ([2]; 323.15 K, x1 = 1): 0.369 ± 0.005 mPa·s; mass density ([2]; 323.15 K, x1 = 1): 666.85 ± 2 kg/m3
CCCCCO [pentan-1-ol] | 3.458 ± 0.042 mPa·s | 810.59 ± 2 kg/m3 | 3.007 ± 0.037 mPa·s | 807.89 ± 2 kg/m3 | 2.625 ± 0.032 mPa·s | 804.16 ± 2 kg/m3 | 2.317 ± 0.029 mPa·s | 800.4 ± 2 kg/m3 | 2.029 ± 0.025 mPa·s | 796.59 ± 2 kg/m3 | 1.795 ± 0.022 mPa·s | 792.75 ± 2 kg/m3 | – | – | – | – | – | – | – | – | –
CC(C)CC(C)(C)C [2,2,4-trimethylpentane] + CCCCCCCO | – | – | – | – | – | – | – | – | – | – | – | – | 0.478 ± 0.006 mPa·s | 687.82 ± 2 kg/m3 | 0.453 ± 0.005 mPa·s | 683.68 ± 2 kg/m3 | 0.429 ± 0.005 mPa·s | 679.52 ± 2 kg/m3 | 0.408 ± 0.005 mPa·s | 675.32 ± 2 kg/m3 | viscosity ([2]; 318.15 K, x1 = 1): 0.388 ± 0.005 mPa·s; mass density ([2]; 318.15 K, x1 = 1): 671.1 ± 2 kg/m3; viscosity ([2]; 323.15 K, x1 = 1): 0.369 ± 0.005 mPa·s; mass density ([2]; 323.15 K, x1 = 1): 666.85 ± 2 kg/m3
